Results taken from patent US20240316051A1, “A PHARMACEUTICAL COMBINATION AND USE THEREOF” (Ascentage Pharma (Suzhou) Co., Ltd., priority 2021, published 2024).

target: T1, EED (1-441)-His protein (Homo sapiens, UniProt O75530); experiment: EED-H3K27Me3 peptide competition binding assay by AlphaScreen; conditions: IC50 class, Table 4B, read-out: Alpha screen
T1 construct: 20 nM EED (1-441)-His protein
Method: EED-H3K27Me3 Peptide Competition Binding Assay by AlphaScreen (α-Screen):
The compounds at each concentration (2.5 μl of each) were transferred into a 384-well Perkin Elmer OptiPlate-384 white plates. 5 μl of solutions containing 20 nM EED (1-441)-His protein in the buffer (25 mM HEPES, pH 8, 0.02% Tween-20, 0.5% BSA) were added to the wells and then incubated with compound for 15 min. 2.5 μl of solutions containing 20 nM biotin-H3K27Me3 (19-33) peptide in the buffer (25 mM HEPES, pH 8, 0.02% Tween-20, 0.5% BSA) were added to the wells and then incubated with compound for 30 min. AlphaScreen detection beads mix was prepared immediately before use by mixing nickel chelate acceptor beads and streptavidin donor beads in a 1:1 ratio (Perkin Elmer, Product No. 6760619C/M/R) into the buffer described above. Then 10 μl of the detection beads mix was added to the plate and incubated in the dark at RT for 1 h. The final concentration of donor and acceptor beads was 10 μg/ml for each. Plates were read on CLARIOStar plate reader (BMG Labtech) using the AlphaScreen setting adapted for optimal signal detection with a 615 nm filter, after sample excitation at 680 nm. The emission signal at 615 nm was used to quantify compound inhibition. AlphaScreen signals were normalized based on the reading coming from the positive (maximum signal control) and negative controls (minimum signal control) to give percentage of activities left. The data were then fit to a dose response equation to get the IC50 values.

T1 sequence (O75530 whole entry): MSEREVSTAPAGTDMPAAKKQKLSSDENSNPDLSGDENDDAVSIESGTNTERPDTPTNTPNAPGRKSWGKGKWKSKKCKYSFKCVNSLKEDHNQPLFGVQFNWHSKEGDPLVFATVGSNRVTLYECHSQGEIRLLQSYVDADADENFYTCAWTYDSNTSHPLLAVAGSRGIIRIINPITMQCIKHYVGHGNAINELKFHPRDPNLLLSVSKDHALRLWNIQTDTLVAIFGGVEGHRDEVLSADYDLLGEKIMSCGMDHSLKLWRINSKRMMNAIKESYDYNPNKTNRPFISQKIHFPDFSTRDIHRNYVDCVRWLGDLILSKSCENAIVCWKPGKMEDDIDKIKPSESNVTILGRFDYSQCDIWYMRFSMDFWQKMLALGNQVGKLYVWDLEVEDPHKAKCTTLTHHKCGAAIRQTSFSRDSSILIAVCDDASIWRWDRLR

IC50	Structure (SMILES)
< 10 nM	CCc1ccc2c(n1)CN(CC(F)(F)F)C(=O)c1ncn3c(NCc4c(F)ccc5c4CCO5)ncc-2c13 [E 12, 7-ethyl-12-(((5-fluoro-2,3-dihydrobenzofuran-4-yl)methyl)amino)-4-(2,2,2-trifluoroethyl)-4,5-dihydro-3H-2,4,6,11,12a-pentaazabenzo[4,5]cycloocta [1,2,3-cd]inden-3-one]
< 10 nM	Cc1cnc2n1Cc1cc(C(F)(F)F)ncc1-c1cnc(NCc3c(F)ccc4c3CCO4)n3cnc-2c13 [E 10, N-((5-fluoro-2,3-dihydrobenzofuran-4-yl)methyl)-5-methyl-8-(trifluoromethyl)-6H-2,3,5a,9,12,13a-hexaazabenzo[4,5]cyclopenta[7,8]cycloocta[1,2,3-cd]inden-13-amine]
10 to 100 nM	[2H]C([2H])(Nc1ncc2c3c(ncn13)C(=O)N(CC(F)(F)F)Cc1cc(C(=O)N(C)C)ccc1-2)c1c(F)ccc2c1CCO2 [E 24, 12-(((5-fluoro-2,3-dihydrobenzofuran-4-yl)methyl-d2)amino)-N,N-dimethyl-3-oxo-4-(2,2,2-trifluoroethyl)-4,5-dihydro-3H-2,4,11,12a-tetraazabenzo[4, 5]cycloocta[1,2,3-cd]indene-7-carboxamide]
< 10 nM	CCc1ccc2c(n1)CN(CC(F)F)C(=O)c1ncn3c(NCc4c(F)ccc5c4CCO5)ncc-2c13 [E 13, 4-(2,2-difluoroethyl)-7-ethyl-12-(((5-fluoro-2,3-dihydrobenzofuran-4-yl)methyl)amino)-4,5-dihydro-3H-2,4,6,11,12a-pentaazabenzo[4,5]cycloocta [1,2,3-cd]inden-3-one]
10 to 100 nM	Fc1ccc2c(c1CNc1ncc3c4c(ncn14)-c1nccn1Cc1nc(C(F)(F)F)ccc1-3)CCO2 [E 32, N-((5-fluoro-2,3-dihydrobenzofuran-4-yl)methyl)-8-(trifluoromethyl)-6H-2,3,5a,7,12,13a-hexaaza-benzo[4,5]cyclopenta[7,8]cycloocta[1,2,3-cd]inden-13-amine]
10 to 100 nM	Cc1ccc2c(n1)CCNC(=O)c1ncn3c(NCc4c(F)ccc5c4CCO5)ncc-2c13 [E 29, 13-(((5-fluoro-2,3-dihydrobenzofuran-4-yl)methyl)amino)-8-methyl-5,6-dihydro-2,4,7,12,13a-pentaazabenzo[4,5]cyclonona[1,2,3-cd]inden-3(4H)-one]
< 10 nM	CC(C)c1ccc2c(n1)CN(CC(F)(F)F)C(=O)c1ncn3c(NCc4c(F)ccc5c4CCO5)ncc-2c13 [E 15, 12-(((5-fluoro-2,3-dihydrobenzofuran-4-yl)methyl)amino)-7-isopropyl-4-(2,2,2-trifluoroethyl)-4,5-dihydro-3H-2,4,6,11,12a-pentaazabenzo[4,5] cycloocta[1,2,3-cd]inden-3-one]
10 to 100 nM	Cc1ccc2c(n1)Cc1conc1-c1ncn3c(NCc4c(F)ccc5c4CCO5)ncc-2c13 [E 36, N-((5-fluoro-2,3-dihydrobenzofuran-4-yl)methyl)-8-methyl-6H-4-oxa-2,3,7,12,13a-pentaazabenzo [4,5]cyclopenta[7,8]cycloocta[1,2,3-cd]inden-13-amine]
< 10 nM	CC(C)N1Cc2cc(C(F)F)ncc2-c2cnc(NCc3c(F)ccc4c3CCO4)n3cnc(c23)C1=O [E 11, 7-(difluoromethyl)-12-(((5-fluoro-2,3-dihydro-benzofuran-4-yl)methyl)amino)-4-isopropyl-4,5-dihydro-3H-2,4,8,11,12a-pentaazabenzo[4,5] cycloocta[1,2,3-cd]inden-3-one]

same assay, conditions: Table 4A, read-out: Alpha screen

IC50	Structure (SMILES)
1.09 nM	O=C1OCc2cc(C(F)(F)F)ncc2-c2cnc(NCc3c(F)ccc4c3CCO4)n3cnc1c23 [Compound 13, 12-(((5-fluoro-2,3-dihydrobenzofuran-4-yl)methyl)amino)-7-(trifluoromethyl)-3H,5H-4-oxa-2,8,11, 12a-tetraazabenzo[4,5]cycloocta[1,2,3-cd]inden-3-one]
1.9 nM	CC(F)(F)CN1Cc2nc(C(F)(F)F)ccc2-c2cnc(NCc3c(F)ccc4c3CCO4)n3cnc(c23)C1=O [Compound 77, 4-(2,2-difluoropropyl)-12-(((5-fluoro-2,3-dihydrobenzofuran-4-yl)methyl)amino)-7-(trifluoromethyl)-4,5-dihydro-3H-2,4,6,11,12a-pentaazabenzo[4,5] cycloocta[1,2,3-cd]inden-3-one]
0.52 nM	O=C1NCc2ccccc2-c2cnc(NCc3c(F)ccc4c3CCO4)n3cnc1c23 [Compound 15, 12-(((5-fluoro-2,3-dihydrobenzofuran-4-yl)methyl)amino)-4,5-dihydro-3H-2,4,11,12a-tetraazabenzo [4,5]cycloocta[1,2,3-cd]inden-3-one]
0.84 nM	CN1CCC(CN2Cc3nc(C(F)(F)F)ccc3-c3cnc(NCc4c(F)ccc5c4CCO5)n4cnc(c34)C2=O)CC1 [Compound 42, 12-(((5-fluoro-2,3-dihydrobenzofuran-4-yl)methyl)amino)-4-((1-methylpiperidin-4-yl)methyl)-7-(trifluoromethyl)-4,5-dihydro-3H-2,4,6,11,12a-pentaazabenzo[4,5]cycloocta[1,2,3-cd]inden-3-one]
0.84 nM	O=C1OCc2cc(F)ccc2-c2cnc(NCc3cccc4c3CCO4)n3cnc1c23 [Compound 9, 12-(((2,3-dihydrobenzofuran-4-yl)methyl)amino)-7-fluoro-3H,5H-4-oxa-2,11,12a-triazabenzo[4,5] cycloocta[1,2,3-cd]inden-3-one]
4.75 nM	O=C1OCc2ccc(C(F)(F)F)cc2-c2cnc(NCc3c(F)ccc4c3CCO4)n3cnc1c23 [Compound 24, 12-(((5-fluoro-2,3-dihydrobenzofuran-4-yl)methyl)amino)-8-(trifluoromethyl)-3H,5H-4-oxa-2,11,12a-triazabenzo[4,5]cycloocta[1,2,3-cd]inden-3-one]
2.74 nM	CC(C)(O)CN1Cc2nc(C(F)(F)F)ccc2-c2cnc(NCc3c(F)ccc4c3CCO4)n3cnc(c23)C1=O [Compound 58, 12-(((5-fluoro-2,3-dihydrobenzofuran-4-yl)methyl)amino)-4-(2-hydroxy-2-methylpropyl)-7-(trifluoro-methyl)-4,5-dihydro-3H-2,4,6,11,12a-pentaazabenzo [4,5]cycloocta[1,2,3-cd]inden-3-one]
1.44 nM	O=C1c2ncn3c(NCc4c(F)ccc5c4CCO5)ncc(c23)-c2cnc(C(F)(F)F)cc2CN1C1CC1 [Compound 36, 4-cyclopropyl-12-(((5-fluoro-2,3-dihydrobenzofuran-4-yl)methyl)amino)-7-(trifluoromethyl)-4,5-dihydro-3H-2,4,8,11,12a-pentaazabenzo[4,5]cycloocta[1,2,3-cd]inden-3-one]
10.5 nM	O=C1c2ncn3c(NCc4c(F)ccc5c4CCO5)ncc(c23)-c2nc(C(F)(F)F)ccc2CN1CC1COCCO1 (stereo not drawn) [Compound 40, 4-((1,4-dioxan-2-yl)methyl)-12-(((5-fluoro-2,3-dihydrobenzofuran-4-yl)methyl)amino)-8-(trifluoro-methyl)-4,5-dihydro-3H-2,4,9,11,12a-pentaazabenzo [4,5]cycloocta[1,2,3-cd]inden-3-one]
3.86 nM	O=C1c2ncn3c(NCc4c(F)ccc5c4CCO5)ncc(c23)-c2ccc(C(F)(F)F)cc2CN1CC1COCCO1 (stereo not drawn) [Compound 68, 4-((1,4-dioxan-2-yl)methyl)-12-(((5-fluoro-2,3-dihydrobenzofuran-4-yl)methyl)amino)-7-(trifluoro-methyl)-4,5-dihydro-3H-2,4,11,12a-tetraazabenzo [4,5]cycloocta[1,2,3-cd]inden-3-one]
8.94 nM	COc1cccc(F)c1CNc1ncc2c3c(ncn13)C(=O)N(C(C)C)Cc1nc(C(F)(F)F)ccc1-2 [Compound 71, 12-((2-fluoro-6-methoxybenzyl)amino)-4-isopropyl-7-(trifluoromethyl)-4,5-dihydro-3H-2,4,6,11,12a-pentaazabenzo[4,5]cycloocta[1,2,3-cd]inden-3-one]
0.7 nM	Cc1ccc2c(n1)COC(=O)c1ncn3c(NCc4c(F)ccc5c4CCO5)ncc-2c13 [Compound 18, 12-(((5-fluoro-2,3-dihydrobenzofuran-4-yl)methyl)amino)-7-methyl-3H,5H-4-oxa-2,6,11,12a-tetraazabenzo[4,5]cycloocta[1,2,3-cd]inden-3-one]
1.19 nM	O=C1c2ncn3c(NCc4c(F)ccc5c4CCO5)ncc(c23)-c2ccc(C(F)(F)F)cc2CN1CCF [Compound 61, 12-(((5-fluoro-2,3-dihydrobenzofuran-4-yl)methyl)amino)-4-(2-fluoroethyl)-7-(trifluoromethyl)-4,5-dihydro-3H-2,4,11,12a-tetraazabenzo[4,5] cycloocta[1,2,3-cd]inden-3-one]
0.7 nM	O=C1NCc2ncccc2-c2cnc(NCc3c(F)ccc4c3CCO4)n3cnc1c23 [Compound 16, 12-(((5-fluoro-2,3-dihydrobenzofuran-4-yl)methyl)amino)-4,5-dihydro-3H-2,4,6,11,12a-pentaazabenzo[4,5]cycloocta[1,2,3-cd]inden-3-one]
3.61 nM	O=C1c2ncn3c(NCc4c(F)ccc5c4CCO5)ncc(c23)-c2ccc(C(F)(F)F)cc2CN1CC1CCOCC1 [Compound 66, 12-(((5-fluoro-2,3-dihydrobenzofuran-4-yl)methyl)amino)-4-((tetrahydro-2H-pyran-4-yl)methyl)-7-(trifluoromethyl)-4,5-dihydro-3H-2,4,11,12a-tetra-azabenzo[4,5]cycloocta[1,2,3-cd]inden-3-one]
